# Measurements from paper PMC4918930, “Investigation of Elemental Mass Spectrometry in Pharmacology for Peptide Quantitation at Femtomolar Levels” (PLoS ONE, 2016).
# Residues, ends and D or L forms follow the SMILES beside them.
# Molecular target: T1, human V1A receptor (Homo sapiens, UniProt P37288)
# T1 construct: expressed in transfected cells
# Test: Saturation experiment with RP-LC-ICP-MS (78Se) read-out on CHO cells stably expressing the human V1A receptor
# Conditions: [Se-Se]-AVP 0.05 nM to 80 nM, non-specific with 2000-fold excess of AVP, binding buffer pH 7.4, 4 h at 4°C, 1% TFA dissociation, mean of 2 independent experiments carried out in triplicate, ±SD, read-out: dissociation constant (Kd)
# Protocol: (§1) Assays were performed in triplicate.
# as §1
# T1 sequence (P37288 whole entry): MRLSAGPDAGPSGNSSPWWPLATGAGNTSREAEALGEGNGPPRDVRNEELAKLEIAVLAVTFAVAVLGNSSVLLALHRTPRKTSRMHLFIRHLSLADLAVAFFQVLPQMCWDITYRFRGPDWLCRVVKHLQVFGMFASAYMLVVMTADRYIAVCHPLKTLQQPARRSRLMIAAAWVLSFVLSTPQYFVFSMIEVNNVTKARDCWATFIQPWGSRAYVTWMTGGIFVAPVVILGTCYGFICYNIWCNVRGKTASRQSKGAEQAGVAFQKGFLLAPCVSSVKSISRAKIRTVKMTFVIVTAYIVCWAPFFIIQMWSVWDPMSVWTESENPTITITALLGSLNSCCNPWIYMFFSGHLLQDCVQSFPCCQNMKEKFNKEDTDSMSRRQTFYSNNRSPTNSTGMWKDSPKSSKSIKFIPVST
smiles,measurement,value
"N=C(N)NCCC[C@H](NC(=O)[C@@H]1CCCN1C(=O)[C@@H]1C[Se][Se]C[C@H](N)C(=O)N[C@@H](Cc2ccc(O)cc2)C(=O)N[C@@H](Cc2ccccc2)C(=O)N[C@@H](CCC(N)=O)C(=O)N[C@@H](CC(N)=O)C(=O)N1)C(=O)NCC(N)=O [[Se-Se]-AVP] (HELM PEPTIDE1{[N[C@@H](C[Se][*:3])C(=O)[*:2]].Y.F.Q.N.[O=C([C@H](C[Se][*:3])N[*:1])[*:2]].P.R.G.[am]}$PEPTIDE1,PEPTIDE1,1:R3-6:R3$$$V2.0)",Kd,0.99 ± 0.14 nM
